Test results taken from patent US10577383B2, “Macrocyclic inhibitors of myeloperoxidase” (BRISTOL-MYERS SQUIBB COMPANY, priority 2016, dated 2020).

Key:
myeloperoxidase [1] = biological target: T1, myeloperoxidase (Homo sapiens (Human), UniProt P05164); experiment: MPO Peroxidation Assay (Amplex Red Assay); assay type: biochemical; conditions: MPO peroxidation activity, 100 mM KPi (pH 7.4), ten minute preincubation; potency ranges defined in nM
Method: MPO Peroxidation Assay (Amplex Red Assay)
MPO peroxidation activity was measured in 100 mM KPi (pH 7.4) by utilizing the non-fluorescent reagent Amplex Red (Invitrogen Cat. #A12222) which can be oxidized to the highly fluorescent resorufin. Amplex Red is oxidized by the peroxidase action of MPO to resorufin. Reactions were carried out in 50 μL total volume by adding a 25 μL mixture of 200 pM myeloperoxidase and 40 nM H2O2 (Sigma #349887) to 100 nL inhibitor in 100% DMSO in a 384 well Perkin Elmer Optiplate. Enzyme and compound were preincubated for ten minutes at room temperature.
After the ten minute preincubation, 25 μL of an Amplex Red mixture containing 200 μM Amplex Red and 10 mM H2O2 was added to the plate. Kinetic determinations were carried out immediately on a Perkin Elmer Envision (15 minute kinetic read, Ex: 535 nm, Em: 590 nm).
(§1) IC50 values were calculated by determining the slope of the linear portion of the kinetic trace (180-540 secs), and using that calculated slope to determine % inhibition occurring at each concentration of inhibitor using the following equation:
(§2) [formula] where A=minimal Y value (activity level of inhibited sample), B=maximal Y value (activity level of uninhibited sample), C=Log IC50, D=Hill Slope, x=concentration of inhibitor. MPO Chlorination Assay (APF Assay) MPO chlorination activity was measured in 100 mM KPi (pH 7.4) by utilizing the non-fluorescent reagent Aminophenyl fluorescein (APF, Invitrogen Cat. #A36003). APF is cleaved by (—OCl) to yield the fluorescent compound fluorescein. Reactions were carried out in 50 μL total volume by adding a 25 μL mixture of 200 pM myeloperoxidase and 120 mM NaCl to 100 nL inhibitor in 100% DMSO in a 384 well, non-binding surface clear bottom plate (Corning #3655). Enzyme, inhibitor, and chloride were preincubated for ten minutes at room temperature.

myeloperoxidase [2] = biological target: T1, myeloperoxidase; experiment: MPO Chlorination Assay (APF Assay); assay type: biochemical; conditions: MPO chlorination activity, 100 mM KPi (pH 7.4), 120 mM NaCl, ten minute preincubation; potency ranges defined in nM
Method: as §2
After the ten minute preincubation, 25 μL of an APF mixture containing […], 120 mM NaCl and 10 μM H2O2 was added to the plate using the internal dispensing system of a Hammatsu FDSS 6000. Kinetic determinations were carried out immediately on the FDSS 6000 (3 minute kinetic read, 1 read every second, ex: 485 nm, em: 535 nm). IC50 values for inhibitors were calculated by taking the slope of the linear portion of the kinetic measurement (20 seconds to 80-120 secs).
as §1
[formula] where A=minimal Y value (activity level of inhibited sample), B=maximal Y value (activity level of uninhibited sample), C=Log IC50, D=Hill Slope, x=concentration of inhibitor. EPX Bromination Assay

T1 sequence (P05164 49-745): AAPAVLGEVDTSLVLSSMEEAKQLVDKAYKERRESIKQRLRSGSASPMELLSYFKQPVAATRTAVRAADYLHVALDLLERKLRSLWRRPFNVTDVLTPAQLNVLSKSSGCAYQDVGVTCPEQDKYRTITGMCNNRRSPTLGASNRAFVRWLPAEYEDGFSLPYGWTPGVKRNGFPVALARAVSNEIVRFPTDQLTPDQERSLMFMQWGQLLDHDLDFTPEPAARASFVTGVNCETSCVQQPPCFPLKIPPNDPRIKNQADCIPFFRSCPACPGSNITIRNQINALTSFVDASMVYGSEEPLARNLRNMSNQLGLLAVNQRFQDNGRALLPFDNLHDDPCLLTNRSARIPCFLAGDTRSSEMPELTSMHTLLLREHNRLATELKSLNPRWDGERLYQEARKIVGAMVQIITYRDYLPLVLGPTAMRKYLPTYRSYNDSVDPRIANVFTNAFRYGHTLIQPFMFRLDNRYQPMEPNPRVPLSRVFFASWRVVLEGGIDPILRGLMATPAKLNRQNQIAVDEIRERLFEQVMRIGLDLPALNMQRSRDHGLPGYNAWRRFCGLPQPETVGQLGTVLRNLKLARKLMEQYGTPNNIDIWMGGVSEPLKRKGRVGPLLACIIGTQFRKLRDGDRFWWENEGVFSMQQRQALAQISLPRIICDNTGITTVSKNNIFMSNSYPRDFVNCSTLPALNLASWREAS

IC50 (myeloperoxidase [1]) | IC50 (myeloperoxidase [2]) | SMILES
101 to 999 nM | 101 to 999 nM | Nc1cc(C2CCNCCc3cccc(c3)Oc3cccc(c3)Cn3cc2cn3)c2nn[nH]c2n1 (single isomer, unassigned) [Example 4, 7-{18-oxa-3,4,10-triazatetracyclo[17.3.1.1^3,^6.1^13,^1^7]pentacosa-1(23),4,6(25),13,15,17(24),19,21-octaen-7-yl}-3H-[1,2,3]triazolo[4,5-b]pyridin-5-amine]
101 to 999 nM | 1 to 100 nM | Nc1cc(C2CCNCC3(CC3)COc3cccc(c3)Cn3cc2cn3)c2nn[nH]c2n1 (single isomer, unassigned) [Example 21, 7-{14′-Oxa-3′,4′,10′-triazaspiro[cyclopropane-1,12′-tricyclo[13.3.1.1^3,^6]icosane]-1′(19′),4′,6′(20′),15′,17′-pentaen-7′-yl}-3H-[1,2,3]triazolo[4,5-b]pyridin-5-amine]
101 to 999 nM | 1 to 100 nM | Nc1cc(C2CCNCc3cccc(c3)Oc3cccc(c3)Cn3cc2cn3)c2nn[nH]c2n1 (stereo not shown) [Example 1, 7-{17-oxa-3,4,10-triazatetracyclo[16.3.1.1^3,^6.1^12,^1^6]tetracosa-1(22),4,6(24),12,14,16(23),18,20-octaen-7-yl}-3H-[1,2,3]triazolo[4,5-b]pyridin-5-amine]
1 to 100 nM | 1 to 100 nM | Nc1cc(C2CCNCCc3cccc(c3)Oc3cccc(c3)Cn3cc2cn3)c2nn[nH]c2n1 (stereo not shown) [Example 3, 7-{18-oxa-3,4,10-triazatetracyclo[17.3.1.1^3,^6.1^13,^1^7]pentacosa-1(23),4,6(25),13,15,17(24),19,21-octaen-7-yl}-3H-[1,2,3]triazolo[4,5-b]pyridin-5-amine]
1000 to 10000 nM | 101 to 999 nM | CN1CCC(c2cc(N)nc3[nH]nnc23)c2cnn(c2)Cc2cccc(c2)Oc2cccc(c2)C1 (stereo not shown) [Example 6, 7-{10-methyl-17-oxa-3,4,10-triazatetracyclo[16.3.1.1^3,^6.1^12,^1^6]tetracosa-1(22),4,6(24),12,14,16(23),18,20-octaen-7-yl}-3H-[1,2,3]triazolo[4,5-b]pyridin-5-amine]
1 to 100 nM | 1 to 100 nM | C[C@H]1Cc2cccc(c2)Oc2cccc(c2)Cn2cc(cn2)C(c2cc(N)nc3[nH]nnc23)CCN1 (stereo partly drawn) [Example 7, 7-[(11S)-11-Methyl-18-oxa-3,4,10-triazatetracyclo[17.3.1.1^3,^6.1^13,^1^7]pentacosa-1(23),4,6(25),13,15,17(24),19,21-octaen-7-yl]-3H-[1,2,3]triazolo[4,5-b]pyridin-5-amine]
101 to 999 nM | 1 to 100 nM | C[C@@H]1Cc2cccc(c2)Oc2cccc(c2)Cn2cc(cn2)C(c2cc(N)nc3[nH]nnc23)CCN1 (stereo partly drawn) [Example 8, 7-[(11R)-11-Methyl-18-oxa-3,4,10-triazatetracyclo[17.3.1.1^3,^6.1^13,^1^7]pentacosa-1(23),4,6(25),13,15,17(24),19,21-octaen-7-yl]-3H-[1,2,3]triazolo[4,5-b]pyridin-5-amine]
1 to 100 nM | 1 to 100 nM | Nc1cc(C2CCNCc3cccc(c3)OCc3cccc(c3)Cn3cc2cn3)c2nn[nH]c2n1 (stereo not shown) [Example 9, 7-{17-Oxa-3,4,10-triazatetracyclo[17.3.1.1^3,^6.1^12,^1^6]pentacosa-1(23),4,6(25),12,14,16(24),19,21-octaen-7-yl}-3H-[1,2,3]triazolo[4,5-b]pyridin-5-amine]
101 to 999 nM | 1 to 100 nM | C[C@H]1Oc2cccc(c2)Cn2cc(cn2)C(c2cc(N)nc3[nH]nnc23)CCNCc2cccc1c2 (stereo partly drawn) [Example 10, 7-[(17R)-17-Methyl-18-oxa-3,4,10-triazatetracyclo[17.3.1.1^3,^6.1^12,^16]pentacosa-1(23),4,6(25),12,14,16(24),19,21-octaen-7-yl]-3H-[1,2,3]triazolo[4,5-b]pyridin-5-amine]
101 to 999 nM | 1 to 100 nM | Nc1cc(C2CCN[C@H](CO)Cc3cccc(c3)Oc3cccc(c3)Cn3cc2cn3)c2nn[nH]c2n1 (stereo partly drawn) [Example 11, [(11S)-7-{5-Amino-3H-[1,2,3]triazolo[4,5-b]pyridin-7-yl}-18-oxa-3,4,10-triazatetracyclo[17.3.1.1^3,^6.1^13,^1^7]pentacosa-1(23),4,6(25),13,15,17(24),19,21-octaen-11-yl]methanol]
1 to 100 nM | 1 to 100 nM | Nc1cc(C2CCNCc3cc(F)cc(c3)OCc3cccc(c3)Cn3cc2cn3)c2nn[nH]c2n1 (stereo not shown) [Example 12, 7-{14-Fluoro-17-oxa-3,4,10-triazatetracyclo[17.3.1.1^3,^6.1^12,^1^6]pentacosa-1(23),4,6(25),12(24),13,15,19,21-octaen-7-yl}-3H-[1,2,3]triazolo[4,5-b]pyridin-5-amine]
1000 to 10000 nM | 101 to 999 nM | COc1ccc2cc1OCc1cccc(c1)Cn1cc(cn1)C(c1cc(N)nc3[nH]nnc13)CCNC2 (stereo not shown) [Example 13, 7-{15-Methoxy-17-oxa-3,4,10-triazatetracyclo[17.3.1.1^3,^6.1^12,^1^6]pentacosa-1(23),4,6(25),12(24),13,15,19,21-octaen-7-yl}-3H-[1,2,3]triazolo[4,5-b]pyridin-5-amine]
1000 to 10000 nM | 1 to 100 nM | Nc1cc(C2CCNCc3ccc(F)c(c3)OCc3cccc(c3)Cn3cc2cn3)c2nn[nH]c2n1 (stereo not shown) [Example 14, 7-{15-Fluoro-17-oxa-3,4,10-triazatetracyclo[17.3.1.1^3,^6.1^12,^1^6]pentacosa-1(23),4,6(25),12(24),13,15,19,21-octaen-7-yl}-3H-[1,2,3]triazolo[4,5-b]pyridin-5-amine]
101 to 999 nM | 1 to 100 nM | Nc1cc(C2CCNCc3cc(Cl)cc(c3)OCc3cccc(c3)Cn3cc2cn3)c2nn[nH]c2n1 (stereo not shown) [Example 15, 7-{14-Chloro-17-oxa-3,4,10-triazatetracyclo[17.3.1.1^3,^6.1^12,^1^6]pentacosa-1(23),4,6(25),12(24),13,15,19,21-octaen-7-yl}-3H-[1,2,3]triazolo[4,5-b]pyridin-5-amine]
101 to 999 nM | 1 to 100 nM | Nc1cc(C2CCNCCc3cccc(c3)OCc3cccc(c3)Cn3cc2cn3)c2nn[nH]c2n1 (stereo not shown) [Example 16, 7-{18-Oxa-3,4,10-triazatetracyclo[18.3.1.1^3,^6.1^13,^1^7]hexacosa-1(24),4,6(26),13(25),14,16,20,22-octaen-7-yl}-3H-[1,2,3]triazolo[4,5-b]pyridin-5-amine]
1000 to 10000 nM | 101 to 999 nM | Nc1cc(C2CCNCCCOc3cccc(c3)Cn3cc2cn3)c2nn[nH]c2n1 (stereo not shown) [Example 17, 7-{14-Oxa-3,4,10-triazatricyclo[13.3.1.1^3,^6]icosa-1(19),4,6(20),15,17-pentaen-7-yl}-3H-[1,2,3]triazolo[4,5-b]pyridin-5-amine]
101 to 999 nM | 1 to 100 nM | Nc1cc(C2CCNCC3(CC3)COc3cccc(c3)Cn3cc2cn3)c2nn[nH]c2n1 (stereo not shown) [Example 19, 7-{14′-Oxa-3′,4′,10′-triazaspiro[cyclopropane-1,12′-tricyclo[13.3.1.1^3,^6]icosane]-1′(19′),4′,6′(20′),15′,17′-pentaen-7′-yl}-3H-[1,2,3]triazolo[4,5-b]pyridin-5-amine]
101 to 999 nM | 1 to 100 nM | Nc1cc(C2CCNCC3(CCCC3)COc3cccc(c3)Cn3cc2cn3)c2nn[nH]c2n1 (stereo not shown) [Example 22, 7-{14′-Oxa-3′,4′,10′-triazaspiro[cyclopentane-1,12′-tricyclo[13.3.1.1^3,^6]icosane]-1′(19′),4′,6′(20′),15′,17′-pentaen-7′-yl}-3H-[1,2,3]triazolo[4,5-b]pyridin-5-amine]
1000 to 10000 nM | 101 to 999 nM | Nc1cc(C2CCNCc3cc(cc(OC(F)(F)F)c3)COc3cccc(c3)Cn3cc2cn3)c2nn[nH]c2n1 (stereo not shown) [Example 23, 7-[14-(Trifluoromethoxy)-18-oxa-3,4,10-triazatetracyclo[17.3.1.1^3,^6.1^12,^1^6]pentacosa-1(23),4,6(25),12,14,16(24),19,21-octaen-7-yl]-3H-[1,2,3]triazolo[4,5-b]pyridin-5-amine]
101 to 999 nM | 1 to 100 nM | Nc1cc(C2CCNCc3ccc(F)c(c3)COc3ccc(F)c(c3)Cn3cc2cn3)c2nn[nH]c2n1 (stereo not shown) [Example 24, 7-{15,22-Difluoro-18-oxa-3,4,10-triazatetracyclo[17.3.1.1^3,^6.1^12,^1^6]pentacosa-1(23),4,6(25),12,14,16(24),19,21-octaen-7-yl}-3H-[1,2,3]triazolo[4,5-b]pyridin-5-amine]
